# In the supplement of paper PMC9663587:
# Tests used:
# [1] = compound: CC(=O)Nc1cccc(-n2c(=O)n(C3CC3)c(=O)c3c(Nc4ccc(I)cc4F)n(C)c(=O)c(C)c32)c1
# Ipatasertib/GDC0068 = compound: CC(C)NC[C@@H](C(=O)N1CCN(c2ncnc3c2[C@H](C)C[C@H]3O)CC1)c1ccc(Cl)cc1 [Ipatasertib/GDC0068]
# [2] = compound: CCC1=CN=CN=C1N2CCN(CC2)CC3=NC4=C(N3)C=C(C=C4)C(F)(F)F
# [3] = compound: CCN1CCN(Cc2ccc(Nc3ncc(F)c(-c4cc(F)c5nc(C)n(C(C)C)c5c4)n3)nc2)CC1
# BSJ-01-175 = compound: CN(C)C/C=C/C(=O)Nc1ccc(O[C@@H]2CCC[C@@H](Nc3ncc(Cl)c(-c4c[nH]c5ccccc45)n3)C2)cc1 [BSJ-01-175]
# AZD2014 = compound: CNC(=O)c1cccc(-c2ccc3c(N4CCOC[C@@H]4C)nc(N4CCOC[C@@H]4C)nc3n2)c1 [AZD2014]
# [4] = compound: COc1ccc2c(c1)[C@]1(C[C@H]1c1ccc3c(/C=C/c4ccc(CN5C[C@@H](C)O[C@@H](C)C5)cc4)n[nH]c3c1)C(=O)N2
# AZD6738 = compound: C[C@@H]1COCCN1c1cc(C2([S@](C)(=N)=O)CC2)nc(-c2cc[nH]c3nccc2-3)n1 [AZD6738]
# AZD7762 = compound: NC(=O)Nc1cc(-c2cccc(F)c2)sc1C(=O)N[C@H]1CCCNC1 [AZD7762]
# Vorinostat = compound: O=C(CCCCCCC(=O)Nc1ccccc1)NO [Vorinostat]
# Tivantinib/ARQ197 = compound: O=C1NC(=O)[C@@H](c2cn3c4c(cccc24)CCC3)[C@@H]1c1c[nH]c2ccccc12 [Tivantinib/ARQ197]
# BSJ-03-123 = compound: CC(=O)c1c(C)c2cnc(Nc3ccc(N4CCN(CCOCCOCCOCCNC(=O)COc5cccc6c5C(=O)N(C5CCC(=O)NC5=O)C6=O)CC4)cn3)nc2n(C2CCCC2)c1=O [BSJ-03-123]; experiment: increase in dead-cell fraction, 72 h; higher = more death;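 also: breast cancer cell lines in 384-well plates, stained with Hoechst plus LIVE/DEAD far red dye and imaged, cells above an LDR intensity threshold counted dead, Hoechst-negative corpses included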
# [5] = compound: CC(=O)c1c(C)c2cnc(Nc3ccc(N4CCNCC4)cn3)nc2n(C2CCCC2)c1=O; experiment: as above
# [6] = compound: CCN1CCN(Cc2ccc(Nc3ncc(F)c(-c4cc(F)c5nc(C)n(C(C)C)c5c4)n3)nc2)CC1; experiment: as above
# Neratinib/HKI272 = compound: CCOc1cc2ncc(C#N)c(Nc3ccc(OCc4ccccn4)c(Cl)c3)c2cc1NC(=O)/C=C/CN(C)C [Neratinib/HKI272]; experiment: as above
# [7] = compound: CCc1cnn2c(NCc3ccc[n+]([O-])c3)cc(N3CCCC[C@H]3CCO)nc12; experiment: as above
# LEE011/Ribociclib = compound: CN(C)C(=O)c1cc2cnc(Nc3ccc(N4CCNCC4)cn3)nc2n1C1CCCC1 [LEE011/Ribociclib]; experiment: as above
# THZ1 = compound: CN(C)C/C=C/C(=O)Nc1ccc(C(=O)Nc2cccc(Nc3ncc(Cl)c(-c4c[nH]c5ccccc45)n3)c2)cc1 [THZ1]; experiment: as above
# Flavopiridol = compound: CN1CC[C@H](c2c(O)cc(O)c3c(=O)cc(-c4ccccc4Cl)oc23)[C@H](O)C1 [Flavopiridol]; experiment: as above
# 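For GR50, 72 h in this document: breast cancer and non-malignant breast epithelial cell lines, Deep Dye Drop or Dye Drop imaging, nine half-log doses, GR normalized to time-zero plates and DMSO-only controls.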
cell line,measurement,setting,value
UACC893,"GR50, 72 h",[1],0.0212 µM
same,"GR50, 72 h",Ipatasertib/GDC0068,0.223 µM
same,"GR50, 72 h",[2],6.76 µM
same,"GR50, 72 h",[3],0.00967 µM
same,"GR50, 72 h",BSJ-01-175,0.0165 µM
same,"GR50, 72 h",AZD2014,< 0.001 µM
same,"GR50, 72 h",[4],0.0124 µM
same,"GR50, 72 h",AZD6738,9.33 µM
same,"GR50, 72 h",AZD7762,0.299 µM
same,"GR50, 72 h",Vorinostat,3.72 µM
same,"GR50, 72 h",Tivantinib/ARQ197,0.297 µM
same,increase in dead-cell fraction,BSJ-03-123; 0.001 µM,-0.0061
same,increase in dead-cell fraction,BSJ-03-123; 0.003162 µM,0.0019
same,increase in dead-cell fraction,BSJ-03-123; 0.01 µM,0.0038
same,increase in dead-cell fraction,BSJ-03-123; 0.03162 µM,-0.0027
same,increase in dead-cell fraction,BSJ-03-123; 0.1 µM,0.0026
same,increase in dead-cell fraction,BSJ-03-123; 0.3162 µM,0.0022
same,increase in dead-cell fraction,BSJ-03-123; 1 µM,0.0012
same,increase in dead-cell fraction,BSJ-03-123; 3.162 µM,-0.0003
same,increase in dead-cell fraction,BSJ-03-123; 10 µM,0.0009
same,increase in dead-cell fraction,[5]; 0.0003162 µM,-0.0005
same,increase in dead-cell fraction,[5]; 0.001 µM,0.0008
same,increase in dead-cell fraction,[5]; 0.003162 µM,-0.0028
same,increase in dead-cell fraction,[5]; 0.01 µM,0.0018
same,increase in dead-cell fraction,[5]; 0.03162 µM,0.006
same,increase in dead-cell fraction,[5]; 0.1 µM,0.0063
same,increase in dead-cell fraction,[5]; 0.3162 µM,0.0087
same,increase in dead-cell fraction,[5]; 1 µM,0.0064
same,increase in dead-cell fraction,[5]; 3.162 µM,0.0017
same,increase in dead-cell fraction,[6]; 0.001 µM,-0.001
same,increase in dead-cell fraction,[6]; 0.003162 µM,0.0022
same,increase in dead-cell fraction,[6]; 0.01 µM,0.0063
same,increase in dead-cell fraction,[6]; 0.03162 µM,0.0037
same,increase in dead-cell fraction,[6]; 0.1 µM,0.0039
same,increase in dead-cell fraction,[6]; 0.3162 µM,0.0024
same,increase in dead-cell fraction,[6]; 1 µM,0.0009
same,increase in dead-cell fraction,[6]; 3.162 µM,-0.0005
same,increase in dead-cell fraction,[6]; 10 µM,0.0324
same,increase in dead-cell fraction,Neratinib/HKI272; 0.0003162 µM,-0.0043
same,increase in dead-cell fraction,Neratinib/HKI272; 0.001 µM,-0.0037
same,increase in dead-cell fraction,Neratinib/HKI272; 0.003162 µM,0.0271
same,increase in dead-cell fraction,Neratinib/HKI272; 0.01 µM,0.0964
same,increase in dead-cell fraction,Neratinib/HKI272; 0.03162 µM,0.113
same,increase in dead-cell fraction,Neratinib/HKI272; 0.1 µM,0.187
same,increase in dead-cell fraction,Neratinib/HKI272; 0.3162 µM,0.21
same,increase in dead-cell fraction,Neratinib/HKI272; 1 µM,0.299
same,increase in dead-cell fraction,Neratinib/HKI272; 3.162 µM,0.417
same,increase in dead-cell fraction,[7]; 0.0001 µM,-0.0009
same,increase in dead-cell fraction,[7]; 0.0003162 µM,0.0014
same,increase in dead-cell fraction,[7]; 0.001 µM,-0.005
same,increase in dead-cell fraction,[7]; 0.003162 µM,-0.0023
same,increase in dead-cell fraction,[7]; 0.01 µM,0.0014
same,increase in dead-cell fraction,[7]; 0.03162 µM,0.0697
same,increase in dead-cell fraction,[7]; 0.1 µM,0.123
same,increase in dead-cell fraction,[7]; 0.3162 µM,0.166
same,increase in dead-cell fraction,[7]; 1 µM,0.169
same,increase in dead-cell fraction,LEE011/Ribociclib; 0.001 µM,-0.0008
same,increase in dead-cell fraction,LEE011/Ribociclib; 0.003162 µM,-0.0005
same,increase in dead-cell fraction,LEE011/Ribociclib; 0.01 µM,0.0034
same,increase in dead-cell fraction,LEE011/Ribociclib; 0.03162 µM,0.0015
same,increase in dead-cell fraction,LEE011/Ribociclib; 0.1 µM,0.0055
same,increase in dead-cell fraction,LEE011/Ribociclib; 0.3162 µM,0.0017
same,increase in dead-cell fraction,LEE011/Ribociclib; 1 µM,0.0062
same,increase in dead-cell fraction,LEE011/Ribociclib; 3.162 µM,0.0013
same,increase in dead-cell fraction,LEE011/Ribociclib; 10 µM,0.0077
same,increase in dead-cell fraction,THZ1; 0.0001 µM,-0.0022
same,increase in dead-cell fraction,THZ1; 0.0003162 µM,-0.0022
same,increase in dead-cell fraction,THZ1; 0.001 µM,0.0023
same,increase in dead-cell fraction,THZ1; 0.003162 µM,-0.0026
same,increase in dead-cell fraction,THZ1; 0.01 µM,-0.0007
same,increase in dead-cell fraction,THZ1; 0.03162 µM,0.0317
same,increase in dead-cell fraction,THZ1; 0.1 µM,0.0774
same,increase in dead-cell fraction,THZ1; 0.3162 µM,0.0967
same,increase in dead-cell fraction,THZ1; 1 µM,0.134
same,increase in dead-cell fraction,Flavopiridol; 0.0001 µM,-0.0013
same,increase in dead-cell fraction,Flavopiridol; 0.0003162 µM,-0.0009
same,increase in dead-cell fraction,Flavopiridol; 0.001 µM,0.0052
same,increase in dead-cell fraction,Flavopiridol; 0.003162 µM,-0.0042
same,increase in dead-cell fraction,Flavopiridol; 0.01 µM,-0.0006
same,increase in dead-cell fraction,Flavopiridol; 0.03162 µM,0.0011
same,increase in dead-cell fraction,Flavopiridol; 0.1 µM,0.0012
same,increase in dead-cell fraction,Flavopiridol; 0.3162 µM,0.013
same,increase in dead-cell fraction,Flavopiridol; 1 µM,0.132
